Here are results for three molecules from patent US9822082B2, “Diaminotriazine derivatives as herbicides” (BASF SE, priority 2014, dated 2017).

Assay in all cases: pre-emergence greenhouse herbicidal test
Common to all, as to type: in vivo

The test system of one assay is SETFA (Setaria faberi). The following applies: pre-emergence method, scale from 0 to 100. The text has this:
(§1) The seeds of the test plants were sown separately for each species. For the pre-emergence treatment, the active ingredients, which had been suspended or emulsified in water, were applied directly after sowing by means of finely distributing nozzles. The containers were irrigated gently to promote germination and growth and subsequently covered with transparent plastic hoods until the plants had rooted. This cover caused uniform germination of the test plants, unless this had been impaired by the active ingredients. Depending on the species, the plants were kept at 10-25° C. or 20-35° C., respectively. The test period extended over 2 to 4 weeks. During this time, the plants were tended, and their response to the individual treatments was evaluated. Evaluation was carried out using a scale from 0 to 100. 100 means no emergence of the plants, or complete destruction of at least the aerial moieties, and 0 means no damage, or normal course of growth. A moderate herbicidal activity is given at values of at least 60, a good herbicidal activity is given at values of at least 70, and a very good herbicidal activity is given at values of at least 85. The plants used in the greenhouse experiments were of the following species: [table]

The test system of assay [1] is AMARE (Amaranthus retroflexus). The following applies: pre-emergence method, scale from 0 to 100.
Source text: as §1

Assay [2] has as its system ABUTH (Abutilon theophrasti). The following applies: pre-emergence method, application rate 0.500 kg/ha, scale from 0 to 100.
Source text: as §1

In assay [3] the test system is ECHCG (Echinocloa crus-galli). The following applies: pre-emergence method, application rate 0.250 kg/ha, scale from 0 to 100.
Source text: as §1

In the case of `COC1(c2nc(N)nc(Nc3c(F)c(F)cc(F)c3F)n2)CCC1` [Example 1, 6-(1-methoxycyclobutyl)-N4-(2,3,5,6-tetrafluorophenyl)-1,3,5-triazine-2,4-diamine], the “herbicidal activity against SETFA” value with SETFA (Setaria faberi) (application rate 0.500 kg/ha) is “very good herbicidal activity (a very good herbicidal activity is given at values of at least 85)”. For the same molecule, the “herbicidal activity against AMARE” value in assay [1] (application rate 0.500 kg/ha) is recorded as “very good herbicidal activity (a very good herbicidal activity is given at values of at least 85)”. Moreover, the “herbicidal activity against ABUTH” value in assay [2] is reported as “very good herbicidal activity (a very good herbicidal activity is given at values of at least 85)”.
As to `COC1(c2nc(N)nc(Nc3c(F)c(F)cc(F)c3F)n2)CCCC1` [Example 2, 6-(1-methoxycyclopentyl)-N2-(2,3,5,6-tetrafluorophenyl)-1,3,5-triazine-2,4-diamine], in the assay on SETFA (Setaria faberi) (application rate 0.500 kg/ha), the “herbicidal activity against SETFA” value is recorded as “very good herbicidal activity (a very good herbicidal activity is given at values of at least 85)”. Also, in assay [1] (application rate 0.500 kg/ha), the “herbicidal activity against AMARE” value is on record as “very good herbicidal activity (a very good herbicidal activity is given at values of at least 85)”. The “herbicidal activity against ABUTH” value in assay [2] is reported as “very good herbicidal activity (a very good herbicidal activity is given at values of at least 85)”.
For the molecule `COC1(c2nc(N)nc(Nc3c(F)c(F)cc(F)c3F)n2)CCCCC1` [Example 3, 6-(1-methoxycyclohexyl)-N2-(2,3,5,6-tetrafluorophenyl)-1,3,5-triazine-2,4-diamine], the “herbicidal activity against ECHCG” value in assay [3] was “very good herbicidal activity (a very good herbicidal activity is given at values of at least 85)”. Moreover, in the assay with SETFA (Setaria faberi) (application rate 0.250 kg/ha), the “herbicidal activity against SETFA” value is “very good herbicidal activity (a very good herbicidal activity is given at values of at least 85)”. Also, the “herbicidal activity against AMARE” value in assay [1] (application rate 0.250 kg/ha) is given as “very good herbicidal activity (a very good herbicidal activity is given at values of at least 85)”.
